The values below come from patent publication US7357991B2, “Soluble compound and organic electroluminescent devices” (Idemitsu Kosan Co., Ltd., priority 2001, dated 2008).

The structures appear in SMILES notation.

A short description of this data set: Solubility in organic solvents. Type of data set: physicochemical. The settings on record: in each of toluene, xylene, N-methylpyrrolidone, γ-butyrolactone, 1,3-dimethyl-2-imidazoline, carbitol acetate, butylcarbitol acetate, dichloromethane, dichloroethane, chlorobenzene and isopropyl alcohol. How it is done:
Examples of the distyrylarylene derivative represented by general formula (1) of the present invention will be shown in the following. However, the distyrylarylene derivative of the present invention is not limited to the compounds shown as the examples. In the following, C5 means n-pentyl group. The compounds shown in the following as the examples are all dissolved into 1,2-dichloroethane at 20° C. in an amount of 0.5% by weight or more.
In the same procedures as those conducted in Example 1, 4,4″-bis(2,2-diphenylethenyl)-9′,10′-diphenylanthracene was used in place of Compound (A1) and attempted to be dissolved in organic solvents, which were toluene, xylene, N-methylpyrrolidone, γ-butyrolactone, 1,3-dimethyl-2-imidazoline, carbitol acetate, butylcarbitol acetate, dichloromethane, dichloroethane, chlorobenzene and isopropyl alcohol. However, this compound was hardly soluble in these solvents since the solubility was smaller than 0.01% by weight in all of these solvents, and no device could be prepared.

Take `C(=C(c1ccccc1)c1ccccc1)c1ccc(-c2c3ccccc3c(-c3ccc(C=C(c4ccccc4)c4ccccc4)cc3)c3ccccc23)cc1` [4,4″-bis(2,2-diphenylethenyl)-9′,10′-diphenylanthracene]: the solubility entry was “smaller than 0.01 % by weight”.
